Measured values as given in patent US20240116985A1, “STAPLED PEPTIDES AND METHODS THEREOF” (priority 2020, published 2024).
pIC50: −log10 of the molar value.

The molecules below were run against T1, full-length beta-Catenin (Uniprot ID P35222) (Homo sapiens, UniProt P35222) (assay: Fluorescence polarization IC50 (beta-catenin / 5FAM-TCF4 10-53 competition)). Conditions: fluorescence polarization; read-out: beta-Catenin FP IC50.
T1 construct: 10 nM full-length beta-Catenin (Uniprot ID P35222)
T1 sequence (P35222 1-781): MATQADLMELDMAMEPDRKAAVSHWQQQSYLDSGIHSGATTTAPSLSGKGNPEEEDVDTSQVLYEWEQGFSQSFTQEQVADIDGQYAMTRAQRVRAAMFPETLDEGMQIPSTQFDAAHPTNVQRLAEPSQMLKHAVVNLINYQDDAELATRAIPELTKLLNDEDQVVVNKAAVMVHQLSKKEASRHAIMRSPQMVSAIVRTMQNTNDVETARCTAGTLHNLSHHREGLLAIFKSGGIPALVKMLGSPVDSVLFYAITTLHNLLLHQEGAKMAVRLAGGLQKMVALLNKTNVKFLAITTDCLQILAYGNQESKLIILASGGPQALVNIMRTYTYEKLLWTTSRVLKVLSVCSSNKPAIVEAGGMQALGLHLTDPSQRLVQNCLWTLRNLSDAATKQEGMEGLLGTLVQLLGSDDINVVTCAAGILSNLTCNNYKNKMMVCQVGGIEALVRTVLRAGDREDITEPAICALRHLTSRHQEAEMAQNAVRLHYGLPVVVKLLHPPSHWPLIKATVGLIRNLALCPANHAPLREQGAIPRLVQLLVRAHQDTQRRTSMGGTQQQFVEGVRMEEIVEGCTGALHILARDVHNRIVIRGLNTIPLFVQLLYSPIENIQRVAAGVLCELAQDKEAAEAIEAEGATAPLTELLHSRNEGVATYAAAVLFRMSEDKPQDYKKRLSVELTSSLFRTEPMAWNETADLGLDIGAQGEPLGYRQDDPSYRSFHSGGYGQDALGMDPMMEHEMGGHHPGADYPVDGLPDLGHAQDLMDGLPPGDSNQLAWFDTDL
Format: binding

Structure (SMILES)	pIC50
CC(C)C[C@@H]1NC(=O)[C@H](Cc2ccccc2)NC(=O)[C@H](C)NC(=O)[C@H](C)NC(=O)[C@H](CN(CC(=O)O)CC(F)(F)F)NC(=O)[C@H](CC(=O)O)NC(=O)C2(CCCCCCCCOC(=O)N3CC[C@@](C(=O)N[C@@H](Cc4ccsc4)C(=O)N[C@@H](Cc4csc5ccccc45)C(=O)N[C@@H](CCC(N)=O)C(N)=O)(C3)NC1=O)CCCCCCOc1cccc(c1)CC(=O)N1CCC[C@H]1C(=O)N[C@@H](CC(=O)O)C(=O)N[C@@H](CC(C)(C)C)C(=O)N2 (stereo partly drawn) [I-2405, ProPAc3OAllyl-Asp-Npg-B5-Asp-TfeGA-Ala-Ala-Phe-Leu-PyrS2-3Thi-BztA-Gln-NH2]	6.25
CC(=O)N1CCC[C@]12CC1OC1CCCC1(CCCC=CCCCOC(=O)N3CC[C@@](C(=O)N[C@@H](Cc4ccccc4C(F)(F)F)C(=O)N[C@@H](Cc4csc5ccccc45)C(=O)N[C@@H](CCC(N)=O)C(N)=O)(C3)NC(=O)[C@H](CC(C)C)NC(=O)[C@H](Cc3ccccc3)NC(=O)[C@H](C)NC(=O)[C@H](C)NC(=O)[C@H](Cc3cccc(C(=O)O)c3)NC(=O)[C@H](CC(=O)O)NC1=O)NC(=O)[C@H](CC(C)(C)C)NC(=O)[C@H](CC(=O)O)NC2=O (stereo partly drawn) [I-2597, Ac-PL3-Asp-Npg-B5-Asp-3COOHF-Ala-Ala-Phe-Leu-PyrS2-2F3MeF-BztA-Gln-NH2]	6.14
CC(=O)N1CCC[C@]12CC=CCCCC1(CCCC=CCCCOC(=O)N3CC[C@@](C(=O)N[C@@H](Cc4ccccc4Cl)C(=O)N[C@@H](Cc4csc5ccccc45)C(=O)N[C@@H](CCC(N)=O)C(N)=O)(C3)NC(=O)[C@H]([C@@H](C)O)NC(=O)[C@H](Cc3ccccc3)NC(=O)[C@H](C)NC(=O)[C@H](C)NC(=O)[C@H](CN(CC(=O)O)CC(F)(F)F)NC(=O)[C@H](CC(=O)O)NC1=O)NC(=O)[C@H](CC(C)(C)C)NC(=O)[C@H](CC(=O)O)NC2=O (stereo partly drawn) [I-1463, Ac-PL3-Asp-Npg-B5-Asp-TfeGA-Ala-Ala-Phe-Thr-PyrS2-2C1F-BztA-Gln-NH2]	7.74
CC(=O)N1CC2CC1C(=O)N[C@@H](CC(=O)O)C(=O)N[C@@H](CC(C)(C)C)C(=O)NC1(CCCC=CCCCOC(=O)N3CC[C@@](C(=O)N[C@@H](Cc4ccsc4)C(=O)N[C@@H](Cc4csc5ccccc45)C(=O)N[C@@H](CCC(N)=O)C(N)=O)(C3)NC(=O)[C@H](CC(C)C)NC(=O)[C@H](Cc3ccccc3)NC(=O)[C@H](C)NC(=O)[C@H](C)NC(=O)[C@H](CN(CC(=O)O)CC(F)(F)F)NC(=O)[C@H](CC(=O)O)NC1=O)CCCC=CCCC(=O)O2 (stereo partly drawn) [I-2264, Ac-HypEs5-Asp-Npg-B5-Asp-TfeGA-Ala-Ala-Phe-Leu-PyrS2-3Thi-BztA-Gln-NH2]	7.35
CC(=O)N1CCC[C@]12CC=CCCCC1(CCCC=CCCCOC(=O)N3CC[C@@](C(=O)N[C@@H](Cc4ccsc4)C(=O)N[C@@H](Cc4csc5ccccc45)C(=O)N[C@@H](CCC(N)=O)C(N)=O)(C3)NC(=O)[C@H](CC(C)C)NC(=O)[C@H](Cn3cc(CN(C)C)nn3)NC(=O)[C@H](C)NC(=O)[C@H](C)NC(=O)[C@H](CN(CC(=O)O)CC(F)(F)F)NC(=O)[C@H](CC(=O)O)NC1=O)NC(=O)[C@H](CC(C)(C)C)NC(=O)[C@H](CC(=O)O)NC2=O (stereo partly drawn) [I-1855, Ac-PL3-Asp-Npg-B5-Asp-TfeGA-Ala-Ala-[CH2NMe2]TriAzDap-Leu-PyrS2-3Thi-BztA-Gln-NH2]	6.07
CC(=O)N1CCC[C@]12CC=CCCCC1(CCCC=CCCCOC(=O)N3CC[C@@](C(=O)N[C@@H](Cc4ccsc4)C(=O)N[C@@H](Cc4csc5ccccc45)C(=O)N[C@@H](CCC(N)=O)C(N)=O)(C3)NC(=O)[C@H](CC(C)C)NC(=O)[C@H](Cc3ccccc3)NC(=O)[C@H](C)NC(=O)[C@H](C)NC(=O)[C@H](Cc3ccccc3)NC(=O)[C@H](CC(=O)O)NC1=O)NC(=O)[C@H](CC(C)(C)C)NC(=O)[C@H](CC(=O)O)NC2=O (stereo partly drawn) [I-1441, Ac-PL3-Asp-Npg-B5-Asp-Phe-Ala-Ala-Phe-Leu-PyrS2-3Thi-BztA-Gln-NH2]	6.49
